Like-named read-outs stand apart in the source and are kept apart here.

One experiment has as its system H2073 cells. Put plainly: MTT growth inhibition, H2073 drug-resistant NSCLC. Format: cell-based, human. The note with it: for decrease in potency toward H2073 cells relative to H1993 cells: H2073 versus H1993; for GI50: Homo sapiens, NCI-H2073, MTT. As for the experimental part: NSCLC cell lines H1993 and H2073 were obtained from the Hamon Center for Therapeutic Oncology Research at UT Southwestern Medical Center and cultured in RPMI-1640 medium (Mediatech, VA, USA) supplemented with 5% heat-inactivated FBS (Mediatech™), 100 units/mL penicillin and 0.1 mg/mL streptomycin (Sigma™). All cell lines were cultured in T25 flasks, maintained, and grown at 37° C., 95% humidity, 5% CO2.
(§1) All compounds were dissolved in DMSO at a concentration of either 100 mM or 50 mM prior to cell treatment. The cells were trypsinized and seeded at various cell concentrations depending on the cell type. The cells were grown for 24 h to 72 h, treated with compounds at concentrations ranging from 0.001 to 100 μM, and incubated for 48, 72, or 96 h in 100 or 200 μL media depending on the cell line used. Cells treated with 0.1% DMSO were used as a negative control, and cells treated with 1 μM phenyl arsine oxide (PAO) were used as a positive control.
Spirodienone 4l was evaluated against patient-derived NSCLC cell line H1993 and its drug-resistant variant, H2073. The patient-derived NSCLC cell line […] was obtained from a regrown tumor at a primary site after a patient relapsed several months later.
(§2) Due to their high potencies, compounds 5l and 5g were used to determine the effects of the compounds on drug-resistant tumor cells. Drug-resistant cell lines (i.e., glioma: Hs683, U373, U251, U87, T98G; lung cancer: A549, H2073; uterine carcinoma: MES-SA/Dx5) were complemented with drug-sensitive cell lines, H1993 lung cancer and MES-SA uterine cancer, which were used as controls. Bulbispermine and paclitaxel were also used as controls. The GI50 values were calculated after 48-96 hours of treatment with the indicated compounds in replicate using the MTT growth assay.
Compound 5l was further tested to determine the effect of compounds of the invention on drug-resistant tumor cells. A patient-derived non-small cell lung cancer (NSCLC) line, H1993, and the drug-resistant variant of H1993, H2073, were used for testing. The H1993 cell line was obtained from a lymph node metastasis isolated from the patient prior to chemotherapy. The H2073 cell line was derived from a regrown tumor at the primary site after the patient had relapsed several months after administration of the chemotherapy regimen.

The subject of a further experiment is U373 glioblastoma cells. Put plainly: MTT growth inhibition, U373 glioma. Format: cell-based, human. The note with it: Homo sapiens, U373 MG. As for the experimental part: (§3) Human cancer cell lines were obtained from the American Type Culture Collection (ATCC, Manassas, Va., USA), the European Collection of Cell Culture (ECACC, Salisbury, UK), and the Deutsche Sammlung von Mikroorganismen und Zellkulturen (DSMZ, Braunschweig, Germany). Human cervical adenocarcinoma HeLa cells were cultured in DMEM supplemented with 10% fetal bovine serum (FBS). Human mammary carcinoma MCF-7 cells were cultured in RPMI supplemented with 10% FBS. The U87 cells (ATCC HTB-14) were cultured in DMEM culture medium, while the A549 cells (DSMZ ACC107) were cultured in RPMI culture medium supplemented with 10% heat-inactivated FBS. The GBM Hs683 (ATCC HTB-138) and the T98G (ATCC CRL-1690) cell lines were cultivated in DMEM supplemented with 10% FBS. The GBM U251 cells (ECACC code 09063001) were cultured in 10% MEM. The human uterine sarcoma MES-SA and MES-SA/Dx5 cells were cultured in RPMI-1640 medium supplemented with 10% FBS with MES SA/Dx5 maintained in the presence of 500 nM Doxorubicin (Sigma™). The U373 glioblastoma cells (ECACC 08061901) were cultured in RPMI culture medium supplemented with 10% heat-inactivated FBS.
as §1
Compound 4l was evaluated for in vitro growth inhibition against a panel of cancer cell lines, including U373, U251, U87, T98G, human GBM, and A549 NSCLC. […] Compound 4l was also evaluated for in vitro growth inhibition against the apoptosis-sensitive tumor model Hs683 anaplastic oligodendroglioma as a reference.
as §2

A further experiment has as its system MES-SA cells. Put plainly: MTT growth inhibition, MES-SA uterine sarcoma. The note with it: Homo sapiens, MES-SA, MTT. Format: cell-based. On the procedure: as §3
All compounds were dissolved in DMSO at a concentration of either 100 mM or 50 mM prior to cell treatment. The cells were trypsinized and seeded at various cell concentrations depending on the cell type. The cells were grown for 24 h to 72 h, treated with compounds at concentrations ranging from 0.001 to 100 μM, and incubated for 48, 72, or 96 h in 100 or 200 μL media depending on the cell line used. Cells treated with 0.1% DMSO were used as a negative control, and cells treated with 1 μM phenyl arsine oxide (PAO) were used as a positive control. […]
(§4) Drug-resistant cell lines (i.e., glioma: Hs683, U373, U251, U87, T98G; lung cancer: A549, H2073; uterine carcinoma: MES-SA/Dx5) were complemented with drug-sensitive cell lines, H1993 lung cancer and MES-SA uterine cancer, which were used as controls. […] The GI50 values were calculated after 48-96 hours of treatment with the indicated compounds in replicate using the MTT growth assay.

For a further experiment, the system named is H1993 cells. As to the kind of experiment: MTT growth inhibition, H1993 NSCLC. Format: cell-based. The note with it: Homo sapiens. On the procedure: as §1, §4
In a further experiment the test system is MES-SA/Dx5 cells. As to the kind of experiment: MTT growth inhibition, MDR uterine sarcoma MES-SA/Dx5. Format: cell-based, human. The note with it: for GI50: Homo sapiens, MES-SA/Dx5, MTT. On the procedure:
as §3, §1
Compound 4l was also evaluated against the MDR uterine sarcoma cell line (MES-SA/Dx5 to evaluate whether the compounds of the invention were substrates for the MDR cancer efflux systems. The MES-SA/Dx5 cell line was established from the parent uterine sarcoma MES-SA, grown in the presence of increasing concentrations of doxorubicin and is known to be resistant to a number of P-gp substrates.
The selection of doxorubicin-resistant cells (MES-SA/Dx5 cell line) was performed by splitting the cells and allowing the cells to adhere overnight. The next day, the cells were initially exposed to a DOX concentration of 100 nM, which represented the GI50 concentration. The cells were maintained at this DOX concentration until their growth rate reached that of the untreated cells. The DOX concentration was then increased in two-fold increments following the same growth criteria at each concentration to a final DOX concentration of 500 nM. Each new DOX concentration required approximately 2 passages to reach the growth rate of the untreated cells.
as §2

For `O=C1C=CC2(C=C1)CCN(C(=O)C(F)(F)F)Cc1c2sc2ccccc12` [Compound 4l], the “decrease in potency toward H2073 cells relative to H1993 cells” value in the experiment with H2073 cells is listed as “significantly less pronounced than that observed with paclitaxel”. In addition, the GI50 is 50 µM in the experiment on H2073 cells (Table 3, 48-96 h treatment, read-out: GI50 in vitro values, lung cancer H2073); 7 µM in the experiment with U373 glioblastoma cells (Table 3, 48-96 h treatment, read-out: GI50 in vitro values, glioma U373); 5 µM with MES-SA cells (Table 3, 48-96 h treatment, read-out: GI50 in vitro values, uterine sarcoma MES-SA); 12 µM in the experiment with H1993 cells (NCI-H1993, Table 3, 48-96 h treatment, read-out: GI50 in vitro values, lung cancer H1993); 5 µM with MES-SA/Dx5 cells (Table 3, 48-96 h treatment, read-out: GI50 in vitro values, uterine sarcoma MES-SA/Dx5). The “variation in activity, MDR cell line versus parent cell line” value in the experiment with MES-SA/Dx5 cells (MES-SA/Dx5 versus MES-SA) is listed as “small variation in activity”.
Turning to `O=C1C=C[C@]23CC[N@](Cc4c2sc2ccccc42)[C@H]3C1` [Compound 5l], the “decrease in potency toward H2073 cells relative to H1993 cells” value in the experiment with H2073 cells is “less drastic”. Further, the GI50 with H2073 cells (Table 5, 48-96 hours of treatment, read-out: GI50, Lung Cancer H2073) came to 11 µM; in the experiment on U373 glioblastoma cells (Table 5, 48-96 hours of treatment, read-out: GI50, Glioma U373), 7 µM; in the experiment on MES-SA cells (Table 5, 48-96 hours of treatment, read-out: GI50, Sarcoma MES-SA), 2 µM; in the experiment with H1993 cells (NCI-H1993, Table 5, 48-96 hours of treatment, read-out: GI50, Lung Cancer H1993), 3 µM; in the experiment with MES-SA/Dx5 cells (Table 5, 48-96 hours of treatment, read-out: GI50, Sarcoma MES-SA/Dx5), 7 µM.

(Values after patent publication US10414778B2, “Methods for treatment of resistant cancer” (New Mexico Tech University Research Park Corporation, priority 2016, dated 2019).)
